Test results as given in patent US4154830A, “Unsaturated derivatives of 7-acylamido-3-cephem-4-carboxylic acid” (Carlo Erba S.p.A., priority 1977, dated 1979).
≈ marks a conversion by molar mass, not a printed value. Read-outs that look alike come from different tables or passages of the source.

Experiments:
Assay type in all cases: cell-based
[1] = system: Staphylococcus aureus Smith; experiment: minimal inhibiting concentration (MIC), Gram-positive bacteria
Diplococcus aureus 39/2 = experiment: as above
[2] = system: Diplococcus pneumoniae ATCC6301; experiment: as above; settings: Streptococcus pneumoniae
[3] = system: Streptococcus β-haemolyticus C203; experiment: as above
Escherichia coli G = experiment: minimal inhibiting concentration (MIC), Gram-negative bacteria
Escherichia coli 1507 = experiment: as above
[4] = system: Klebsiella pneumoniae ATCC 10031; experiment: as above; settings: ATCC10031
[5] = system: Klebsiella aerogenes 1522E; experiment: as above
[6] = system: Enterobacter aerogenes ATCC8308; experiment: as above; settings: Klebsiella aerogenes
[7] = system: Enterobacter cloacae 1321E; experiment: as above
Salmonella typhi Watson = experiment: as above; settings: Salmonella enterica
[8] = system: Shigella sonnei ATCC11060; experiment: as above
[9] = system: Proteus mirabilis ATCC9921; experiment: as above
staphylococci = experiment: activity against staphylococci compared with Cefazolin
Source text: (§1) The pharmaceutical or veterinary compositions containing the compounds of the invention may be prepared in a conventional way by employing the conventional carriers and/or diluents used for the other cephalosporins. Conventional carriers or diluents are, for example, water, gelatine, lactose, starches, magnesium stearate, talc, vegetable oils, cellulose and the like.

[10] = system: streptococci (including diplococci); experiment: activity against streptococci (including diplococci) compared with Cefazolin
Source text: as §1

Gram-negative bacteria = experiment: activity against Gram-negative bacteria
Source text: The compounds of the invention may be administered, either to humans or to animals, in a variety of dosage forms, e.g., orally in the form of tablets, capsules, drops or syrups; rectally in the form of suppositories; parenterally, e.g. intravenously or intramuscolarly (as solutions or suspensions), with intravenous administration being preferred in emergency situation; by inhalation in the form of aerosols or solutions for nebulizers; intravaginally in the form, e.g. of bougies; or topically in the form of lotions, creams and ointments. The pharmaceutical or veterinary compositions containing the compounds of the invention may be prepared in a conventional way by employing the conventional carriers and/or diluents used for the other cephalosporins. Conventional carriers or diluents are, for example, water, gelatine, lactose, starches, magnesium stearate, talc, vegetable oils, cellulose and the like. Daily doses in the range of about 1 to about 100 mg per kg of body weight may be used, in various animal species, the exact dose depending on the age, weight and condition of the subject to be treated and on the frequency and route of administration. […]

[11] = system: 60 strains of Gram-negative microorganisms comprising Klebsiella, Escherichia coli, Proteus mirabilis and Proteus vulgaris; experiment: activity on a series of 60 strains of Gram-negative microorganisms in comparison with Cefazolin
Source text: as §1

Haemophylus influenzae = experiment: activity against Haemophylus influenzae in comparison with Cefazolin; settings: 7 strains tested
Source text: as §1

[12] = Escherichia coli G, read-out: MIC

| Structure (SMILES) | MIC [1] | MIC (Diplococcus aureus 39/2) | MIC [2] | MIC [3] | MIC (Escherichia coli G; Escherichia coli) | MIC (Escherichia coli 1507) | MIC [4] | MIC [5] | MIC [6] | MIC [7] | MIC (Salmonella typhi Watson) | MIC [8] | MIC [9] | MIC (Escherichia coli G; [12]) | times more active than Cefazolin (staphylococci) | times more active than Cefazolin [10] | times more active than Cefazolin (Gram-negative bacteria) | activity in comparison with Cefazolin [11] | times more active than Cefazolin (Haemophylus influenzae) |
| --- | --- | --- | --- | --- | --- | --- | --- | --- | --- | --- | --- | --- | --- | --- | --- | --- | --- | --- | --- |
| Cn1nnnc1SCC1=C(C(=O)O)N2C(=O)C(NC(=O)[C@H](O)c3ccccc3)[C@H]2SC1 (stereo partly drawn) [Cefamandole, 7-D-mandelamido-3-{[(1-methyl-1H-tetrazol-5-yl)-thio]-methyl}-3-cephem-4-carboxylic acid, reference compound] | 0.15 µg/mL (≈ 0.324 µM) | 1.2 µg/mL (≈ 2.59 µM) | 0.019 µg/mL (≈ 0.0411 µM) | 0.019 µg/mL (≈ 0.0411 µM) | 2.35 µg/mL (≈ 5.08 µM) | 0.8 µg/mL (≈ 1.73 µM) | 0.15 µg/mL (≈ 0.324 µM) | 0.4 µg/mL (≈ 0.865 µM) | 1.6 µg/mL (≈ 3.46 µM) | 1.6 µg/mL (≈ 3.46 µM) | 0.6 µg/mL (≈ 1.3 µM) | 2.35 µg/mL (≈ 5.08 µM) | 1.6 µg/mL (≈ 3.46 µM) |  |  |  |  |  |  |
| Cc1nnc(SCC2=C(C(=O)O)N3C(=O)[C@@H](NC(=O)Cn4cnnn4)[C@H]3SC2)s1 [Cefazolin, 7-(1-(1H)-tetrazolylacetamido)-3-[2-(5-methyl-1,3,4-thiadiazolyl)-thiomethyl]-3-cephem-4-carboxylic acid, reference compound] | 0.05 µg/mL (≈ 0.11 µM) | 0.6 µg/mL (≈ 1.32 µM) | 0.05 µg/mL (≈ 0.11 µM) | 0.05 µg/mL (≈ 0.11 µM) |  | 1.6 µg/mL (≈ 3.52 µM) | 0.8 µg/mL (≈ 1.76 µM) | 1.1 µg/mL (≈ 2.42 µM) | 1.2 µg/mL (≈ 2.64 µM) | 3.1 µg/mL (≈ 6.82 µM) | 1.6 µg/mL (≈ 3.52 µM) | 1.6 µg/mL (≈ 3.52 µM) | 6.2 µg/mL (≈ 13.6 µM) | 1.6 µg/mL (≈ 3.52 µM) |  |  |  |  |  |
| Cc1nnc(SCC2=C(C(=O)O)N3C(=O)C(NC(=O)CSCC#N)C3SC2)s1 (stereo not shown) [K 9227, 7-[(cyanomethyl-thio)-acetamido]-3-[2-(5-methyl-1,3,4-thiadiazolyl)-thiomethyl]-3-cephem-4-carboxylic acid, reference compound] | 0.05 µg/mL (≈ 0.109 µM) | 0.2 µg/mL (≈ 0.437 µM) | 0.4 µg/mL (≈ 0.874 µM) | 0.025 µg/mL (≈ 0.0546 µM) |  | 1.6 µg/mL (≈ 3.5 µM) | 0.4 µg/mL (≈ 0.874 µM) | 1.6 µg/mL (≈ 3.5 µM) | 1.2 µg/mL (≈ 2.62 µM) | 3.1 µg/mL (≈ 6.77 µM) | 0.8 µg/mL (≈ 1.75 µM) | 1.6 µg/mL (≈ 3.5 µM) | 12.5 µg/mL (≈ 27.3 µM) | 3.1 µg/mL (≈ 6.77 µM) |  |  |  |  |  |
| Cn1nnnc1SCC1=C(C(=O)O)N2C(=O)C(NC(=O)CSCC#N)C2SC1 (stereo not shown) [K 10299, 7-[(cyanomethyl-thio)-acetamido]-3-[5-(1-methyl-1,2,3,4-tetrazolyl)-thiomethyl]-3-cephem-4-carboxylic acid, reference compound] | 0.075 µg/mL (≈ 0.17 µM) | 0.4 µg/mL (≈ 0.906 µM) | 0.2 µg/mL (≈ 0.453 µM) | 0.037 µg/mL (≈ 0.0838 µM) |  | 0.8 µg/mL (≈ 1.81 µM) | 0.2 µg/mL (≈ 0.453 µM) | 0.8 µg/mL (≈ 1.81 µM) | 0.6 µg/mL (≈ 1.36 µM) | 1.6 µg/mL (≈ 3.62 µM) | 0.2 µg/mL (≈ 0.453 µM) | 1.6 µg/mL (≈ 3.62 µM) | 6.2 µg/mL (≈ 14 µM) | 0.8 µg/mL (≈ 1.81 µM) |  |  |  |  |  |
| Cn1nnnc1SCC1=C(C(=O)O)N2C(=O)C(NC(=O)CS/C=C/C(N)=O)C2SC1 (stereo not drawn) [K 11457, 7-[β-carboxamido-ethylene(trans)-thio-acetamido]-3-[(1-methyl-1,2,3,4-tetrazol-5-yl)-thiomethyl]-3-cephem-4-carboxylic acid] | 0.1 µg/mL (≈ 0.212 µM) | 0.4 µg/mL (≈ 0.848 µM) | 0.025 µg/mL (≈ 0.053 µM) | 0.025 µg/mL (≈ 0.053 µM) |  | 0.4 µg/mL (≈ 0.848 µM) | 0.15 µg/mL (≈ 0.318 µM) | 0.2 µg/mL (≈ 0.424 µM) | 0.4 µg/mL (≈ 0.848 µM) | 1.6 µg/mL (≈ 3.39 µM) | 0.2 µg/mL (≈ 0.424 µM) | 1.6 µg/mL (≈ 3.39 µM) | 3.1 µg/mL (≈ 6.57 µM) | 0.4 µg/mL (≈ 0.848 µM) |  |  |  |  |  |
| Cn1nnnc1SCC1=C(C(=O)O)N2C(=O)C(NC(=O)CS/C=C\C(N)=O)C2SC1 (stereo not drawn) [K 13031, 7-[β-carboxamido-ethylene(cis)-thio-acetamido]-3-[(1-methyl-1,2,3,4-tetrazol-5-yl)-thiomethyl]-3-cephem-4-carboxylic acid] | 0.1 µg/mL (≈ 0.212 µM) | 0.2 µg/mL (≈ 0.424 µM) | 0.012 µg/mL (≈ 0.0254 µM) | < 0.012 µg/mL |  | 0.4 µg/mL (≈ 0.848 µM) | 0.2 µg/mL (≈ 0.424 µM) | 0.2 µg/mL (≈ 0.424 µM) | 0.3 µg/mL (≈ 0.636 µM) | 0.8 µg/mL (≈ 1.7 µM) | 0.2 µg/mL (≈ 0.424 µM) | 0.3 µg/mL (≈ 0.636 µM) | 0.8 µg/mL (≈ 1.7 µM) | 0.8 µg/mL (≈ 1.7 µM) |  |  |  |  |  |
| Cn1nnnc1SCC1=C(C(=O)O)N2C(=O)C(NC(=O)CS/C=C\C#N)C2SC1 (stereo not drawn) [K 13101, 7-[β-cyano-ethylene(cis)-thio-acetamido]-3-[(1-methyl-1,2,3,4-tetrazol-5-yl)-thiomethyl]-3-cephem-4-carboxylic acid] | 0.025 µg/mL (≈ 0.0551 µM) | 0.14 µg/mL (≈ 0.309 µM) | 0.012 µg/mL (≈ 0.0265 µM) | 0.012 µg/mL (≈ 0.0265 µM) |  | 0.1 µg/mL (≈ 0.22 µM) | 0.1 µg/mL (≈ 0.22 µM) | 0.1 µg/mL (≈ 0.22 µM) | 0.2 µg/mL (≈ 0.441 µM) | 0.56 µg/mL (≈ 1.23 µM) | 0.07 µg/mL (≈ 0.154 µM) | 0.8 µg/mL (≈ 1.76 µM) | 0.4 µg/mL (≈ 0.882 µM) | 0.14 µg/mL (≈ 0.309 µM) | about 2 times | about 4.2 times | about 9.6 times | always found to be more active than Cefazolin | about 6 times |
| N#C/C=C\SCC(=O)NC1C(=O)N2C(C(=O)O)=C(CSc3nncs3)CSC12 (stereo not drawn) [K 13107, 7-[β-cyano-ethylene(cis)-thio-acetamido]-3-[(1,3,4-thiadiazol-2-yl)-thiomethyl]-3-cephem-4-carboxylic acid] | 0.025 µg/mL (≈ 0.0549 µM) | 0.14 µg/mL (≈ 0.307 µM) | < 0.006 µg/mL | < 0.006 µg/mL |  | 0.57 µg/mL (≈ 1.25 µM) | 0.2 µg/mL (≈ 0.439 µM) | 0.28 µg/mL (≈ 0.615 µM) | 0.4 µg/mL (≈ 0.878 µM) | 1.6 µg/mL (≈ 3.51 µM) | 0.2 µg/mL (≈ 0.439 µM) | 1.6 µg/mL (≈ 3.51 µM) | 0.4 µg/mL (≈ 0.878 µM) | 0.57 µg/mL (≈ 1.25 µM) |  |  |  |  |  |
